System: lymphocytes of control subjects (BPH)
Assay: FISH replication assay, lymphocytes of benign prostate hyperplasia (BPH) subjects grown with 5-azacytidine (Example 7)
Type: cell-based, human
Conditions: BPH samples; all tested loci; 10^-7M AZA
Procedure: Each sample was set up for short-term culturing in F10 medium supplemented with 20% fetal calf serum (FCS), 3% phytohemagglutinin (PHA), 0.2% heparin, and 1% antibiotics (a standard solution of penicillin and streptomycin). Cultures were incubated at 37° C. for 72 hours and then colchicine (final concentration 0.1 μg/ml) was added to the culture for one hour, followed by hypotonic treatment (0.075 M KC1 at 37° C. for 15 minutes) and four washes each with a fresh cold 3:1 methanol: acetic acid solution. The cell suspensions were stored at −20° C. until used for fluorescence in situ hybridization (FISH). […]
Slides were analyzed blindly on an Olympus BH2 fluorescent microscope, using a triple band-pass filter (Chroma technology). […] For each sample and for each treatment the frequency of SD, SS and DD cells out of the total population of cells containing two fluorescent signals was recorded (for details please see Dotan et al, Genes, Chromosomes & Cancer 27:270-277, 2000). For the determination of allelic losses at least 200 cells from the same preparation used for replication studied were analyzed for each tested sample.

Nc1ncn([C@@H]2O[C@H](CO)[C@@H](O)[C@H]2O)c(=O)n1 [AZA, 5-azacytidine]
effect of AZA on the SD values: no significant effect

Reference: patent US6803195B1, “Facile detection of cancer and cancer risk based on level of coordination between alleles” (Ramot At Tel-Aviv University Ltd., priority 1999, dated 2004)
